Consider 2 molecules from PMC8537450, “Cyclopeptide Derivatives from the Sponge-Derived Fungus Acremonium persicinum F10” (Marine Drugs, 2021).

The term IC50 denotes the concentration at which inhibition is half-maximal. Low readings indicate greater potency in that assay, high ones weaker potency in that assay.

Where two headings read alike, the source gives them in different places.

Holding throughout (format): cell-based
For assay [1], the system named is Aspergillus niger ATCC16404. As to the kind of experiment: microbe, parasite or virus in culture. As to the method: (§1) Compounds 1–8 were tested for antifungal activities against Aspergillus fumigatus ATCC204305 and Aspergillus niger ATCC16404 using broth microdilution antifungal susceptibility testing, according to previously published protocol. In the experiments, the RPMI-1640 medium containing 10.4 g/L of RPMI-1640 medium (R8755; Sigma, St. Louis, MO, USA), 6.7 g/L of Yeast Nitrogen Base (YNB; Becton, Dickinson and Company, Franklin Lakes, NJ, USA), 1.8% (w/v) glucose, and 40 mM HEPES (pH = 7.1) was used as culture medium. The inoculum per well for a 96-well microplate was 2 × 10^4 fresh conidia/mL (150 µL/well), which were incubated for 24 h at 37 ℃. The minimal inhibitory concentration (MIC) in the assay were performed using resazurin at 0.002% (w/v) of final concentration.

The subject of assay [2] is Aspergillus fumigatus ATCC204305. As to the kind of experiment: microbe, parasite or virus in culture. How it is done:
as §1

The test system of assay [3] is non-small cell lung cancer cell line A549. Briefly: Cytotoxicity, MTT assay. The following applies: positive control. For orientation: Tetrazolium assays rely on reduction of a dye to a coloured formazan, in cell work by metabolically active cells.
In assay [4] the test system is human embryonic lung fibroblast cell MRC-5. Briefly: Cytotoxicity, MTT assay. The conditions noted are these: MRC-5, MTT, positive control.
In assay [5] the test system is small cell lung cancer cell line H446. As to the kind of experiment: Cytotoxicity, MTT assay. The conditions noted are these: printed H466, MTT, positive control.
Assay [6] concerns small cell lung cancer cell line H1688. As to the kind of experiment: Cytotoxicity, MTT assay. The conditions noted are these: positive control.

Consider `C[C@@H]1[C@H](O)[C@@H](C)/C=C/C=C/C=C/C=C/C=C/C=C/C=C/[C@H](O[C@@H]2O[C@H](C)[C@@H](O)[C@H](N)[C@@H]2O)C[C@@H]2O[C@](O)(C[C@@H](O)C[C@@H](O)[C@H](O)CC[C@@H](O)C[C@@H](O)CC(=O)O[C@H]1C)C[C@H](O)[C@H]2C(=O)O` [Amphotericin B], for which the MIC in assay [1] (ATCC16404, Table S1, broth microdilution, RPMI-1640 + YNB + 1.8% glucose + 40 mM HEPES pH 7.1, 2 × 10^4 conidia/mL, 24 h, 37 °C, resazurin 0.002%, read-out: MIC) stood at 1 µM; in assay [1] (ATCC16404, one range given for A. fumigatus and A. niger together, read-out: MIC values), 1 µM; in assay [1] (ATCC16404, text of method and conclusions, unit printed as μg/mL, read-out: MICs) it was 1 µg/mL; in assay [2] (ATCC204305, Table S1, broth microdilution, RPMI-1640 + YNB + 1.8% glucose + 40 mM HEPES pH 7.1, 2 × 10^4 conidia/mL, 24 h, 37 °C, resazurin 0.002%, read-out: MIC) it was 1 µM; in assay [2] (ATCC204305, one range given for A. fumigatus and A. niger together, read-out: MIC values), 1 µM; in assay [2] (ATCC204305, text of method and conclusions, unit printed as μg/mL, read-out: MICs), 1 µg/mL.

As to `N.N.[Cl][Pt][Cl]` [Cisplatin], the half-inhibitory concentration (IC50) in assay [3] came to 3.8 µM; in assay [4] it was 23.8 µM; in assay [5], 1.9 µM; in assay [6] it was 3 µM.
